In PubChem BioAssay (NCI):
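Five compound concentrations were applied to cells in 96-well plates for 48 hours; endpoints were derived by simple linear interpolation of the resulting dose-response curve. TGI is the concentration that stops growth completely.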

Key:
Assay in all cases: NCI-60 cell line screen, 48 h
[1] = system: TK-10 renal
[2] = system: T-47D breast
[3] = system: OVCAR-5 ovarian
[4] = system: SK-OV-3 ovarian
[5] = system: KM20L2 colon
[6] = system: 786-0 renal
[7] = system: UO-31 renal
[8] = system: BT-549 breast
[9] = system: COLO 205 colon
[10] = system: EKVX NSCLC
[11] = system: HT29 colon
[12] = system: OVCAR-4 ovarian
[13] = system: HCC-2998 colon
[14] = system: DU-145 prostate
[15] = system: HOP-18 NSCLC
[16] = system: KM12 colon
[17] = system: OVCAR-3 ovarian
[18] = system: ACHN renal
[19] = system: SN12C renal
[20] = system: SW-620 colon
[21] = system: A549 NSCLC
[22] = system: NCI-H460 lung
[23] = system: M14 melanoma
[24] = system: U251 CNS
[25] = system: SK-MEL-28 melanoma
[26] = system: RPMI-8226 leukemia
[27] = system: OVCAR-8 ovarian
[28] = system: NCI-H522 lung
[29] = system: DMS 114 small cell lung
[30] = system: UACC-62 melanoma
[31] = system: LOX IMVI melanoma
[32] = system: K-562 leukemia
[33] = system: SNB-75 CNS
[34] = system: CCRF-CEM leukemia
[35] = system: DLD-1 colon
[36] = system: MOLT-4 leukemia
[37] = system: SF-295 CNS
[38] = system: IGROV1 ovarian
[39] = system: DMS 273 small cell lung
[40] = system: M19-MEL melanoma
[41] = system: SK-MEL-5 melanoma
[42] = system: RXF 393 renal
[43] = system: HOP-62 NSCLC
[44] = system: HCT-15 colon
[45] = system: NCI-H226 lung
[46] = system: UACC-257 melanoma
[47] = system: SK-MEL-2 melanoma
[48] = system: HCT-116 colon
[49] = system: HL-60(TB) leukemia
[50] = system: SNB-19 CNS
[51] = system: NCI-H23 lung
[52] = system: MALME-3M melanoma
[53] = system: SF-539 CNS
[54] = system: SF-268 CNS
[55] = system: A498 renal
[56] = system: SNB-78 CNS

In the case of `COc1ccc(/C=C/c2cc(OC)c(OC)c(OC)c2)cc1O`, the TGI [1] is reported as 75.1 µM, the TGI [2] is reported as 45.7 µM and the TGI [3] is reported as 79.5 µM. For the same compound, the TGI [4] was 39.9 µM, the TGI [5] was 25.1 µM and the TGI [6] was 15.3 µM. For the same compound, the TGI [7] was 21 µM, the TGI [8] was 40.7 µM and the TGI [9] was 54.3 µM. For the same compound, the TGI [10] was 59.3 µM, the TGI [11] was 24 µM and the TGI [12] was 71.5 µM. For the same compound, the TGI [13] was 36.9 µM and the TGI [14] was 38.9 µM.

For `Cc1ccc2c(c1)C1(C)OC(CC(N)C1O)O2` (stereo not drawn), the TGI [15] was greater than 100 µM, the TGI [16] was greater than 100 µM and the TGI [1] was greater than 100 µM. For the same compound, the TGI [17] was greater than 100 µM, the TGI [18] was greater than 100 µM and the TGI [19] was greater than 100 µM. For the same compound, the TGI [20] was greater than 100 µM, the TGI [21] was greater than 100 µM and the TGI [22] was greater than 100 µM. The TGI [23] was greater than 100 µM, the TGI [24] was greater than 100 µM and the TGI [25] was greater than 100 µM. It also gave a TGI [26] greater than 100 µM, a TGI [27] greater than 100 µM and a TGI [28] greater than 100 µM. For the same compound, the TGI [4] was greater than 100 µM, the TGI [29] was greater than 100 µM and the TGI [30] was greater than 100 µM. The TGI [31] was greater than 100 µM, the TGI [32] was greater than 100 µM and the TGI [6] was greater than 100 µM. For the same compound, the TGI [33] was greater than 100 µM, the TGI [34] was greater than 100 µM and the TGI [35] was greater than 100 µM. The TGI [36] was greater than 100 µM, the TGI [7] was greater than 100 µM and the TGI [37] was greater than 100 µM. It also gave a TGI [38] greater than 100 µM, a TGI [39] greater than 100 µM and a TGI [40] greater than 100 µM. It also gave a TGI [41] greater than 100 µM, a TGI [42] greater than 100 µM and a TGI [9] greater than 100 µM. For the same compound, the TGI [43] was greater than 100 µM, the TGI [10] was greater than 100 µM and the TGI [44] was greater than 100 µM. It also gave a TGI [11] greater than 100 µM, a TGI [45] greater than 100 µM and a TGI [46] greater than 100 µM. The TGI [47] was greater than 100 µM, the TGI [48] was greater than 100 µM and the TGI [49] was greater than 100 µM. The TGI [50] was greater than 100 µM, the TGI [51] was greater than 100 µM and the TGI [52] was greater than 100 µM. It also gave a TGI [53] greater than 100 µM.

`CN(C)c1ccc(/C=C/C=C\C2=CC(=C\C=C/C=C3C=CC(=[N+](C)C)C=C3)/Sc3ccccc32)cc1` gave a TGI [16] greater than 100 µM, a TGI [1] greater than 100 µM and a TGI [17] greater than 100 µM. The TGI [19] was greater than 100 µM, the TGI [20] was greater than 100 µM and the TGI [21] was greater than 100 µM. For the same compound, the TGI [22] was greater than 100 µM, the TGI [23] was 27.5 µM and the TGI [25] was 28.9 µM. It also gave a TGI [26] greater than 100 µM, a TGI [3] greater than 100 µM and a TGI [27] greater than 100 µM. It also gave a TGI [54] greater than 100 µM, a TGI [4] greater than 100 µM and a TGI [5] greater than 100 µM. The TGI [29] was 24.4 µM, the TGI [30] was greater than 100 µM and the TGI [31] was 64.1 µM. It also gave a TGI [32] greater than 100 µM, a TGI [6] greater than 100 µM and a TGI [33] greater than 100 µM. For the same compound, the TGI [36] was greater than 100 µM, the TGI [7] was greater than 100 µM and the TGI [37] was greater than 100 µM. The TGI [39] was greater than 100 µM, the TGI [40] was 35 µM and the TGI [41] was greater than 100 µM. The TGI [42] was 32.7 µM, the TGI [9] was 78.3 µM and the TGI [43] was greater than 100 µM. The TGI [10] was greater than 100 µM, the TGI [44] was greater than 100 µM and the TGI [11] was greater than 100 µM. The TGI [55] was greater than 100 µM, the TGI [45] was greater than 100 µM and the TGI [46] was greater than 100 µM. The TGI [47] was greater than 100 µM, the TGI [48] was greater than 100 µM and the TGI [49] was greater than 100 µM. The TGI [50] was greater than 100 µM, the TGI [56] was greater than 100 µM and the TGI [52] was greater than 100 µM. The TGI [53] was greater than 100 µM.
